Source: patent US7989495B2, “Compositions and methods for inhibiting NF-κB mediated tumorigenicity and adhesion dependent survival of cancer cells” (University of Utah Research Foundation, priority 2002, dated 2011)
Entries after “also recorded” stand apart in the source; their conditions may differ.

Legend:
IκB phosphorylation = details: Pierce et al., 1997; cited from earlier work
[1] = test system: HCT-116 colon cancer cell line; assay: Cell proliferation assay (crystal violet, 590 nm); format: cell-based
Experimental: (§1) DLD-1, HCT-116, and HT-29 colon cancer cell lines were obtained from the ATCC collection and were cultured in Dulbecco's Modification of Eagle's Medium supplemented with 10% fetal bovine serum, glutamine, penicillin, and streptomycin. 293 cells stably transfected with COX-2 (293-COX-2) under the control of a ponasterone sensitive promoter were cultured in Dulbecco's Modification of Eagle's Medium supplemented with 10% fetal bovine serum, 400 μg/ml of zeocin, 400 μg/ml of G418, glutamine, penicillin, and streptomycin. For induction of COX-2 protein expression, 293-COX-2 cells were cultured for 48 hours in media supplemented with 1 μg/ml of ponasterone. All cells were cultured at 37° C. in a humidified incubator with a 5% CO2 atmosphere.
(§2) For the cell proliferation assay, cells were dispersed and plated at 40,000 cells/well in 96-well dishes. At various days in culture, the cells were gently washed twice with 100 μl/well of ice-cold blocking buffer (1% radioimmunoassay grade BSA in PBS) and twice with 100 μl/well of ice-cold PBS. The cells were fixed for 10 min in 100% ice-cold methanol (100 μl/well), then allowed to air-dry. The cells were stained with 100μl/well of 0.1% crystal violet in H2O for 10 minutes, then washed gently four times with dd H20 and four times with PBS. The plates were then air-dried completely. The stained cells were then solubilized in 1% sodium deoxycholate, and the plates read at 590 nm in a spectrophotometer. The absorption at 590 nm is proportional to the number of attached cells.

[2] = test system: DLD-1 colon cancer cell line; assay: Cell proliferation assay (crystal violet, 590 nm); format: cell-based
Experimental: as §1, §2

HT-29 xenografts = assay: Subcutaneous colon cancer xenograft in athymic mice; format: in vivo; details: for tumor volumes, treatment group compared with control group: HT-29 subcutaneous tumors, 1 mg/kg twice weekly for 28 days, vs DMSO
Experimental: DLD-1, HCT-116, and HT-29 cells were cultured for 6 days in soft agar in the presence of DMSO (control), 10 μM BAY 11-7082, or 10 μM BAY 11-7085. The data points represent the means of colony counts per field (20×) performed in 5 different regions of the culture dishes. The data shown represent a typical result of two separate experiments. FIGS. 2B,C, show athymic mice received subcutaneous injections of HT-29 (B) or HCT-116 (C) cells, followed by […] of BAY 11-7085 (dark bars) or DMSO (white bars) intraperitoneally twice weekly. The bars represent the 25-75% ranges of the tumor volumes and the horizontal lines in the bars are the medians. Using the Kruskal-Wallace statistical test to compare the median tumor volumes between BAY 11-7085 and DMSO yielded a p-value of 0.005 for HT-29 cells but >0.05 for HCT-116 cells.
HT-29 and HCT-116 cells were harvested in 0.25% trypsin-PBS-EDTA, washed once in media and PBS, and resuspended in PBS at 1 million cells per 200 μL. One million cells were injected either subcutaneously in the backs or intraperitoneally in 5 week old female nu/nu athymic mice (Charles River Labs). For the mice with subcutaneous tumors, the tumors were allowed to establish themselves for 10 days after which they were randomized to BAY 11-7085 or DMSO. For the mice with intraperitoneal tumors, the mice received DMSO or BAY 11-7085 (5 mg/kg) 24 hours before the cancer cells were injected intrapentoneally. All mice received BAY 11-7085 (5 mg/kg) or an equal volume of DMSO (˜200 μL) twice weekly for 21-32 days. Subcutaneous tumor sizes were determined by measuring the length and width with calipers. These studies were approved by the U. of Utah Institutional Review Board and Institutional Animal Care and Use Committee and performed in the Animal Resource Center. Mice were euthanized when they experienced a greater than 10% loss in body weight or if they appeared ill. Post-mortem examinations included sectioning of kidney, lung, and liver tissues which were stained with hematoxylin and eosin followed by examination for tissue toxicity/damage by an experienced mouse pathologist (E.J.E.) who was blinded to therapy.
(Wang et al., 1999) However, BAY 11-7082 or BAY 11-7085 alone inhibit colon cancer xenograft growth in athymic mice. HC-116, and HT-29 cell lines were used to generate subcutaneous tumors in athymic female mice. The mice were subsequently randomized to be treated with vehicle (DMSO) alone or BAY 11-7085 1 mg/kg twice weekly for 28 days.

[3] = test system: transiently suspended DLD-1 cells; assay: Apoptosis (annexin V) of transiently suspended cells allowed to readhere; format: cell-based
Experimental: The transiently suspended cells were lysed and allowed to bind to DNA oligonucleotides, containing the NF-κB consensus binding site, that were immobilized to 96-well plates. NF-κB protein bound to the oligonucleotides was detected by an antibody to the p65 subunit that only recognized p65 that is bound to DNA. The positive control was HeLa cells that were stimulated with TNFα A control was performed using excess free NF-κB oligonucleotides (Competitor). […] NF-κB binding activity was determined by the TransAM assay as in FIG. 5A. […] The data shown represent typical results of three separate experiments. […] An immunoblot for COX-2 was performed.
Single cell suspensions were plated at 100,000 cells per well in 24-well plates in media containing DMSO, BAY 11-7082, BAY 11-7085, or MG-132 for 8-24 hours in an incubator. Alternatively, DMSO, BAY 11-7082, BAY 11-7085, or MG-132 were added to cells that were confluent and adherent for several days. The nonadherent cells were aspirated off with the media and spun for 3 minutes at 2,000 rpm in 15 ml polypropylene tubes. The adherent cells were washed twice with PBS, dispersed in trypsin, and spun down for 3 minutes at 2,000 rpm in 15 ml polypropylene tubes. The nonadherent and adherent cells were resuspended in 1× binding buffer (10 mM HEPES/NaOH, pH 7.4, 140 mM NaCl, and 2.5 mM CaCl2) to a final concentration of 10^6 cells/ml. 100 μl of the cell solution were transferred to a 5 ml culture tube and incubated with 5 μl of annexin V-FITC-conjugated monoclonal antibody (Pharmingen) and 10 μl of propidium iodide (from a 50 μg/ml stock solution made in PBS) in the dark at 25° C. for 15 minutes. 400 μl of binding buffer was added to each tube and the cells were analyzed by flow cytometry immediately. The percent of apoptosis was determined as the percent of annexin V-positive, propidium iodide-negative cells of the total cells counted.
Since trypsin can activate protease-activated receptor-2 in colon cancer cell lines, which then results in increased cell proliferation, (Darmoul et al., 2001) NF-κB activation was determined in adherent and confluent DLD-1, HCT-116, Caco-2 and HT-29 cells that were removed from plastic dishes by trypsin or scraping. […] To determine whether the transient activation of NF-κB caused by cell readhesion would render all of the colon cancer cells tested more susceptible to BAY 11-7085-induced apoptosis, DLD-1, HCT-116, Caco-2 and HT-29 colon cancer cell lines were transiently suspended, treated with BAY 11-7085 and allowed to readhere.

[4] = summary statement, concentration not given

| Compound | effect on IκB phosphorylation (IκB phosphorylation) | inhibition of growth of cancer cell line [1, 4] | inhibition of growth of cancer cell line [2, 4] | tumor volumes, treatment group compared with control group (HT-29 xenografts) | share of transiently suspended, readhering cells that became apoptotic [3] | inhibition of cell proliferation ([1]; 10 μM, cultured 8 days) | inhibition of cell proliferation ([2]; 10 μM, cultured 8 days) | p-value, Kruskal-Wallace test of median tumor volumes vs DMSO (HT-29 xenografts; HT-29, intraperitoneally twice weekly) | tumor volumes, treatment group compared with control group (HT-29 xenografts; 1 mg/kg) | in vitro apoptotic threshold during readhesion [3] | BAY 11-7085-induced apoptosis during readhesion ([3]; transiently suspended, treated, allowed to readhere 8 hours) |
| --- | --- | --- | --- | --- | --- | --- | --- | --- | --- | --- | --- |
| Cc1ccc(S(=O)(=O)/C=C/C#N)cc1 [BAY 11-7082, (2E)-3-(tolysulfonyl)-2-propenenitrile] | inhibit | inhibits growth | inhibits growth | reduce tumor volumes | vast majority | – | – | – | – | – | – |
| CC(C)(C)c1ccc(S(=O)(=O)/C=C/C#N)cc1 [BAY 11-7085, (2E)-3-[4-(tertiarybutylphenyl)sulfonyl]-2-propenenitrile] | inhibit | – | – | – | vast majority | greatly inhibited cell proliferation | greatly inhibited cell proliferation | 0.005 | statistically significant overall reduction in the tumor volumes; also recorded: reduce tumor volumes | > 20 µM | showed the same propensity for BAY 11-7085-induced apoptosis |
